In the NIST ThermoML archive (doi:10.1016/j.tca.2009.07.002):

Experiment: xn = mol fraction of the nth substance listed
Details: 101 kPa, Liquid, Vibrating tube method

CCCCO [butan-1-ol] + CCCCCCC
mass density [kg/m3]
Details	288.15 K	293.15 K	298.15 K	303.15 K	308.15 K	313.15 K	318.15 K	323.15 K
x1 = 0.0691	692.997	688.732	684.439	680.112	675.754	671.356	666.921	662.457
x1 = 0.0999	695.43	691.164	686.867	682.541	678.179	673.778	669.334	664.851
x1 = 0.1495	699.575	695.309	691.013	686.688	682.323	677.919	673.469	668.978
x1 = 0.1701	701.352	697.089	692.795	688.469	684.105	679.699	675.246	670.749
x1 = 0.2	703.971	699.708	695.42	691.091	686.729	682.324	677.872	673.376
x1 = 0.2497	708.55	704.296	700.016	695.692	691.331	686.93	682.482	677.987
x1 = 0.2507	708.652	704.392	700.109	695.793	691.434	687.035	682.589	678.099
x1 = 0.2999	713.405	709.158	704.88	700.571	696.222	691.828	687.391	682.909
x1 = 0.3501	718.522	714.283	710.016	705.715	701.373	696.989	692.557	688.076
x1 = 0.3998	723.818	719.595	715.341	711.055	706.726	702.355	697.935	693.471
x1 = 0.4497	729.369	725.163	720.925	716.653	712.34	707.984	703.577	699.118
x1 = 0.4999	735.288	731.11	726.892	722.64	718.343	714.006	709.618	705.176
x1 = 0.5516	741.637	737.484	733.291	729.062	724.793	720.478	716.114	711.695
x1 = 0.6497	754.667	750.57	746.442	742.276	738.07	733.819	729.516	725.167
x1 = 0.6999	761.833	757.773	753.681	749.559	745.39	741.178	736.918	732.609
x1 = 0.7502	769.372	765.348	761.298	757.214	753.09	748.919	744.697	740.419
x1 = 0.7999	777.249	773.267	769.263	765.22	761.14	757.016	752.839	748.617
x1 = 0.8498	785.51	781.573	777.613	773.62	769.591	765.519	761.397	757.222
x1 = 0.9006	794.437	790.548	786.635	782.692	778.716	774.698	770.631	766.522
x1 = 1	813.373	809.573	805.762	801.923	798.053	794.147	790.231	786.238

NC1CCCCC1 [cyclohexylamine] + CCCCCCC
mass density [kg/m3]
Details	288.15 K	293.15 K	298.15 K	303.15 K	308.15 K	313.15 K	318.15 K	323.15 K
x1 = 0.0501	694.788	690.573	686.334	682.072	677.784	673.467	669.12	664.739
x1 = 0.1002	701.818	697.601	693.36	689.097	684.805	680.49	676.146	671.776
x1 = 0.1501	709.079	704.855	700.609	696.341	692.046	687.73	683.386	679.015
x1 = 0.2305	721.227	716.988	712.729	708.452	704.15	699.827	695.479	691.106
x1 = 0.3004	732.296	728.038	723.765	719.477	715.17	710.839	706.489	702.117
x1 = 0.401	749.067	744.783	740.484	736.173	731.847	727.504	723.139	718.756
x1 = 0.4497	757.546	753.244	748.933	744.614	740.28	735.927	731.554	727.16
x1 = 0.5597	777.524	773.195	768.854	764.509	760.149	755.773	751.384	746.981
x1 = 0.6001	785.155	780.814	776.463	772.102	767.732	763.352	758.953	754.544
x1 = 0.6498	794.839	790.479	786.113	781.744	777.362	772.968	768.563	764.139
x1 = 0.6994	804.717	800.344	795.962	791.575	787.181	782.776	778.36	773.935
x1 = 0.7999	825.611	821.199	816.783	812.36	807.934	803.499	799.055	794.605
x1 = 0.8992	847.523	843.061	838.598	834.132	829.662	825.189	820.71	816.229
x1 = 1	871.29	866.747	862.207	857.671	853.138	848.607	844.073	839.547
